According to US7897723B2, “ErbB receptor-derived peptide fragments” (Københavns Universitet, priority 2006, dated 2011):
Bridges are numbered along the chain shown (N, C = ends). Roman numbers before positions name the chains, in order. Where no end group is shown, it is not given here.

Legend:
[1] = system: HN5 cells; test: Cell viability / cell growth (MTS staining); assay type: cell-based, human; conditions: absence and presence of EGF, absence and presence of serum (FIGS. 6A and B)
Protocol: 2000 HN5 cells per well were seeded in a 96 well plate in full medium (containing 10% fetal calf serum) or starvation medium (serum-free). After 12 hours of incubation, peptides or ErbB1 kinase inhibitor PD153035 (Calbiochem) and/or EGF (Sigma-Aldrich) were added in the concentrations indicated in figures. Cells were grown for 72 hours, then 20 μl MTS One Solution Reagent (Promega, Madison, Wis., USA) were added per 100 μl culture medium in each well, and the plates were incubated for 1-2 hours at 37° C., followed by absorbance measurements at 490 nm.

[2] = system: L929 cells; test: Cell proliferation (BrdU incorporation); assay type: cell-based; conditions: L929 cells
Protocol: 2000 L929 cells (ECACC no: 85011425) per well were seeded in a 96 well plate in full medium (containing 10% foetal calf serum) or starvation medium (serum-free). Peptides, ErbB1 kinase inhibitor PD153035 (Calbiochem), and EGF (Sigma-Aldrich) were added immediately after seeding of the cells (for experiments done in full serum) or after 8 hours of incubation (for experiments done in starvation medium) in the concentrations indicated in figures. Cells were grown for 6 hours, then 10 μM bromodeoxyuridine (BrdU) was added, and cells were grown for additional 18 hours. Then, BrdU incorporation in the cells was assayed using the Biotrak ELISA System, version 2 from Amersham Biosciences Europe GmbH (Buckinghamshire, UK) following the manufacturer's protocol.

[3] = biological target: T1, extracellular part of human ErbB2 (Fc chimeric protein) (Homo sapiens, UniProt P04626); test: Surface plasmon resonance (SPR) binding analysis, ErbB2; conditions: peptide immobilized on sensor chip, mean ± SEM
T1 construct: the Fc protein fused to the extracellular parts of human ErbB2, ErbB3 or ErbB4; purchased R&D Systems Europe (Abingdon, UK)
T1 sequence (P04626 23-652 limits assumed, change not shown): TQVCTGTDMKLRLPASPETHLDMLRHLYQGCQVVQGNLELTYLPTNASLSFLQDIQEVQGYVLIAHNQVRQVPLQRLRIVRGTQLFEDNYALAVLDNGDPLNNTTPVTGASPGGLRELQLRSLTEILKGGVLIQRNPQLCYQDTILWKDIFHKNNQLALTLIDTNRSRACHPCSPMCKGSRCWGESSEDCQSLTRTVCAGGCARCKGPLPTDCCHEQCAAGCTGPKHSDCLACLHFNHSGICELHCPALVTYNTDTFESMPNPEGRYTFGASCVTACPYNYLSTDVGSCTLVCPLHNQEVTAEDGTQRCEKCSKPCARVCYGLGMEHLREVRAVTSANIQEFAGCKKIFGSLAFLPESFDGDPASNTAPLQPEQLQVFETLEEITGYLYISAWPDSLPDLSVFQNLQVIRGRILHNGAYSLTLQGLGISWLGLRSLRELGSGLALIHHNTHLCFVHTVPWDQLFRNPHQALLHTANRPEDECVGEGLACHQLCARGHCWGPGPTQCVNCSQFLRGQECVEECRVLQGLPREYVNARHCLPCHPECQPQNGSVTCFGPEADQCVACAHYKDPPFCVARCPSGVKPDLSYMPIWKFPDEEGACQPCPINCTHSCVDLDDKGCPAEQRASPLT
Protocol: (§1) Binding analyses were performed with the surface plasmon resonance (SPR)-based biosensor instrument BIAcore2000 (BIAcore AB, Uppsala, Sweden), at 25° C. using ready-made HBS-EP buffer (BIAcore AB) as running buffer. Peptides were immobilized on the surface of a CM5 sensor chip (BIAcore AB) using an amine coupling kit (Biosensor AB, Uppsala, Sweden) according to the manufacturer's instructions, at a flow rate of 5 μl/min. Briefly, carboxyl groups on the sensor chip surface were activated by injection of 35 μl activation solution followed by injection of peptide (50 μg/ml peptide in HBS-EP buffer, pH 7.4) until the desired level of immobilized peptide was reached. Unreacted peptide was washed out and unreacted activated groups were blocked by the injection of 35 μl 1 M ethanolamine. […] A reference surface was generated simultaneously under the same conditions but without peptide injection and used as a blank chip control. ErbB receptor proteins were injected at various concentrations at a flow rate of 20 μl/min, and binding to the peptides immobilized on the chip was measured in real-time. The curve corresponding to the difference between signals on flow cells with immobilized peptide and the signal on the blank flow cell was used for analysis. […] Data were analyzed by nonlinear curve fitting using the manufacturer' software. […]

[4] = biological target: T2, extracellular part of human ErbB4 (Fc chimeric protein) (Homo sapiens, UniProt Q15303); test: Surface plasmon resonance (SPR) binding analysis, ErbB4; conditions: peptide immobilized on sensor chip, mean ± SEM
T2 construct: the Fc protein fused to the extracellular parts of human ErbB2, ErbB3 or ErbB4; purchased R&D Systems Europe (Abingdon, UK)
T2 sequence (Q15303 26-651 limits assumed): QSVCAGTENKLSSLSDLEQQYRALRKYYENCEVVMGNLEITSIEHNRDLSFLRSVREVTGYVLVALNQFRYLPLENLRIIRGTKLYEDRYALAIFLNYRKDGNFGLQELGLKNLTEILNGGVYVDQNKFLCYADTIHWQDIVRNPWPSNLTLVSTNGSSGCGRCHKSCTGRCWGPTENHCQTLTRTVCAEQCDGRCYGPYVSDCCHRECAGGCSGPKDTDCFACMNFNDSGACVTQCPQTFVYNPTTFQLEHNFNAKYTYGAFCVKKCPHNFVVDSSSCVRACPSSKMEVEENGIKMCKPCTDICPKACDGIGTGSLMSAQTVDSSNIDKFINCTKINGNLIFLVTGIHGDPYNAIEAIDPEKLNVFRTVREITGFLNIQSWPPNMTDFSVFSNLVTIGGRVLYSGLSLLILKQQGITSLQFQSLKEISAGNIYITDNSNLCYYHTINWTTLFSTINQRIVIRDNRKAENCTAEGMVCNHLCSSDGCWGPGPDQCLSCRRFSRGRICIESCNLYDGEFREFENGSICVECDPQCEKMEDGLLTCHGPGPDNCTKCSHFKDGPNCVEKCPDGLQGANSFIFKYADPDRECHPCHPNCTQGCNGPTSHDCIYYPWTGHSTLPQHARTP
Protocol: as §1

[5] = biological target: ErbB1 (Homo sapiens, UniProt P00533); test: ErbB receptor phosphorylation, HN5 cells; assay type: cell-based; parameters: the ErbB1 overexpressing human head and neck cancer cell line HN5; endogenous in cells; host or cells: HN5 human head and neck cancer cells; conditions: 100 μM peptide for 30 min, 10 ng/ml EGF for 10 min (FIG. 8)
Protocol: The cells employed for this assay were NR6 wtEGFR cells, which are fibroblastoid cells stably transfected with ErbB1, and human head and neck tumor-derived HN5 cell. Confluent NR6 wtEGFR or HN5 cells were treated with peptide in the indicated concentrations for 30 min, then stimulated with 10 ng/ml EGF (Sigma-Aldrich, St. Louis, Mo., USA) for 10 min. Cells were lysed in lysis buffer (1% (v/v) Triton X-100, 150 mM NaCl, 10 mM Tris pH 7.4, 1 mM EDTA, 1 mM EGTA, 0.5% (v/v) NP-40, phosphatase inhibitors (Phosphatase Inhibitor Cocktail Set II from Calbiochem, La Jolla, Calif., USA) and protease inhibitors (Complete™ Protease Inhibitor Cocktail from Boehringer Mannheim Biochemica, Mannheim, Germany)), and cleared lysate samples containing equal amounts of total protein (as determined by a bicinchoninic acid assay (Pierce, Rockford, Ill., USA)) were subjected in duplicates to 4-12% SDS-PAGE and immunoblotting. One membrane was probed with anti-phospho-EGFR (phosphotyrosine 1068) antibody (Cell Signaling Technology, Danvers, Mass., USA), the other with anti-EGFR antibody (Cell Signaling Technology). Detection was carried out using horseradish peroxidase (HRP)-conjugated secondary antibodies (DAKO, Denmark) and enhanced chemiluminiscence (Pierce). The intensity of bands was quantified using densitometric analysis employing the software package GeneTools (Syngene, Cambridge, UK).

[6] = starvation medium, 10 or 100 ng/ml EGF, BrdU incorporation (FIG. 4)
[7] = full medium, BrdU incorporation (FIG. 2, FIG. 3)

| Compound | effect on HN5 cell growth [1] | effect on EGF-induced cell proliferation [2, 6] | KD for binding to ErbB2 [3] | KD for binding to ErbB4 [4] | effect on EGF-induced cell proliferation [2, 7] | other results |
| --- | --- | --- | --- | --- | --- | --- |
| COc1cc2ncnc(Nc3cccc(Br)c3)c2cc1OC [PD153035, reference compound] | strongly inhibited growth of the cells both in absence and presence of EGF-stimulation and in the absence and presence of serum | blocked cell proliferation induced by stimulation with either 10 or 100 ng/ml EGF | – | – | – | – |
| I: H-MLYNPTTYQMDVNPEGKKK / II: H-MLYNPTTYQMDVNPEGKK / III: H-MLYNPTTYQMDVNPEGK / IV: H-MLYNPTTYQMDVNPEGK (amide I:18-IV:C, I:19-II:C, II:18-III:C) [Inherbin 1DL, MLYNPTTYQMDVNPEGK] | – | – | No binding | No binding | – | – |
| I: LVYNKLTFQLEPNPHTKKK / II: LVYNKLTFQLEPNPHTKK / III: LVYNKLTFQLEPNPHTK / IV: LVYNKLTFQLEPNPHTK (amide I:18-IV:C, I:19-II:C, II:18-III:C) [Inherbin3d] | – | inhibited EGF-induced cell proliferation | No binding | No binding | – | peptide doses that significantly inhibited cell proliferation ([2]; proliferation induced by either 10 or 100 ng/ml EGF (FIG. 4)): ≥ 0.6 µM |
| Inherbin3n: truncated peptide constituting the N-terminal half of the Inherbin3 peptide (possibly B3dln, SEQ ID NO: 36) (PLVYNKLT; B3dln peptide) | – | – | – | – | inhibited EGF-induced cell proliferation to the same extent as Inherbin3 | – |
| KHKLPYNFNLETTVQPL (also: tetrameric dendrimer on lysine backbone) [Scr-Inherbin3d, reference compound] | no significant effects on HN5 cell growth | – | – | – | – | – |
| VTYNTDTFESMPNPEGR (Inherbin 2 peptide) [Inherbin2] | – | – | – | – | able to inhibit EGF-induced cell proliferation significantly | effect on EGF-induced ErbB1 phosphorylation [5]: not statistically significant |
